From article PMC11851776, “Structural Basis for the Catalysis and Substrate Specificity of a LarA Racemase with a Broad Substrate Spectrum” (ACS Catalysis, 2025)

Tests used:
LarAIp [1] = biological target: T1, LarAIp (Isosphaera pallida, UniProt E8QWZ4); experiment: X-ray crystal structure, […] Å; format: binding; conditions: ligand exchange with ~3 mM D/L-2HB at 55 °C 15 min, then 4 °C; active site
T1 construct: gene Isop_3476; full length, C-terminal Strep-II tag, co-expressed with LarB, LarC and LarE in Lactococcus lactis NZ3900 (structures); apoprotein from E. coli (pBADHisA) plus in vitro-synthesized NPN for substrate assays; 47403 Da after loss of Met1; monomer

LarAIp [2] = biological target: T1, LarAIp; experiment: X-ray crystal structure, […] Å; format: binding; conditions: ligand exchange at ~3 mM, 55 °C 15 min, then 4 °C; active site
LarAIp [3] = biological target: T1, LarAIp; experiment: X-ray crystal structure, […] Å; format: binding; conditions: naturally bound in enzyme as purified; active site with NPN tethered to Lys183
LarAIp [4] = biological target: T1, LarAIp; experiment: competitive-substrate racemization assay, capillary electrophoresis; format: biochemical; conditions: turnover only (relative kcat/KM); 100 mM Tris-HCl pH 8.0, 30 °C, 1 μM NPN
LarAIp [5] = biological target: T1, LarAIp; experiment: racemization assay, D-lactate formed measured by D/L-lactate kit; format: biochemical; conditions: turnover only; conversion to D-lactate also seen in crystal

T1 sequence (E8QWZ4 entry or part of it): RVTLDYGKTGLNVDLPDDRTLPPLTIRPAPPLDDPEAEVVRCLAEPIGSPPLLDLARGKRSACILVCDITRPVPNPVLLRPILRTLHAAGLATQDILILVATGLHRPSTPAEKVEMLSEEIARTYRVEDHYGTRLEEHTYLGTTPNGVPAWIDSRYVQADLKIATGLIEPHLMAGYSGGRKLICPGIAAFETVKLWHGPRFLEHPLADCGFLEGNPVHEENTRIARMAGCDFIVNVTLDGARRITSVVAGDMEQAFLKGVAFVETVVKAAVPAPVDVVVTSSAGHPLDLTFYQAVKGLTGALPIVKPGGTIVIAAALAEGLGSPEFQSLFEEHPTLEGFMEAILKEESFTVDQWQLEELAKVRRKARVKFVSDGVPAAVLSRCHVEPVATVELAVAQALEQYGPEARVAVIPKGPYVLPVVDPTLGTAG

## CC[C@@H](O)C(=O)O [D-2HB]
LarAIp [1]
  X-ray crystal structure, 1.38 Å: 9EID (LarAIp with bound D-2HB)

## CC(C)[C@@H](O)C(=O)O [D-2HIV]
LarAIp [2]
  X-ray crystal structure, 1.65 Å: 9EIF (LarAIp with bound D-2HIV)

## C[C@@H](O)C(=O)O [D-lactate]
LarAIp [3]
  X-ray crystal structure, 1.74 Å: 9EIA (LarAIp with bound D-lactate as purified)

## O=C(O)[C@@H](O)CO [L-glycerate]
LarAIp [4]
  competitive-substrate racemization assay, capillary electrophoresis: highest kcat/KM values for L-lactate and 2-hydroxybutyrate (2HB), followed by L-glycerate

## C[C@H](O)C(=O)O [L-lactate]
LarAIp [5]
  racemization assay, D-lactate formed measured by D/L-lactate kit: confirmed the conversion of three L-α-hydroxyacids into the corresponding D-enantiomers
